pKi: −log10 of the molar value. Read-outs that look alike come from different tables or passages of the source.
Legend:
ACE-2 [1] = molecular target: T1, ACE-2 (Homo sapiens, UniProt Q9BYF1); test: ACE-2 Competitive Substrate Assay (ACS Assay); assay type: biochemical
T1 construct: a stop codon inserted after the serine immediately preceding the transmembrane domain; made in house; host or cells: CHO K1 cells (transient transfection, purified from conditioned medium)

ACE-2 [2] = molecular target: ACE-2 (Rattus norvegicus, UniProt Q5EGZ1); test: ACE-2 Competitive Substrate Assay, rat ACE-2; assay type: biochemical; conditions: Ki class, compounds tested in 5% DMSO
ACE (Sigma, A2580) = molecular target: T2, ACE (Sigma, A2580) (Sus scrofa, UniProt F1RRW5); test: ACE enzymatic activity assay; assay type: biochemical, porcine; conditions: Ki class, compounds tested in 5% DMSO
T2 construct: ACE from porcine kidney; purchased Sigma A2580; host or cells: porcine kidney
T2 sequence (F1RRW5 34-1309): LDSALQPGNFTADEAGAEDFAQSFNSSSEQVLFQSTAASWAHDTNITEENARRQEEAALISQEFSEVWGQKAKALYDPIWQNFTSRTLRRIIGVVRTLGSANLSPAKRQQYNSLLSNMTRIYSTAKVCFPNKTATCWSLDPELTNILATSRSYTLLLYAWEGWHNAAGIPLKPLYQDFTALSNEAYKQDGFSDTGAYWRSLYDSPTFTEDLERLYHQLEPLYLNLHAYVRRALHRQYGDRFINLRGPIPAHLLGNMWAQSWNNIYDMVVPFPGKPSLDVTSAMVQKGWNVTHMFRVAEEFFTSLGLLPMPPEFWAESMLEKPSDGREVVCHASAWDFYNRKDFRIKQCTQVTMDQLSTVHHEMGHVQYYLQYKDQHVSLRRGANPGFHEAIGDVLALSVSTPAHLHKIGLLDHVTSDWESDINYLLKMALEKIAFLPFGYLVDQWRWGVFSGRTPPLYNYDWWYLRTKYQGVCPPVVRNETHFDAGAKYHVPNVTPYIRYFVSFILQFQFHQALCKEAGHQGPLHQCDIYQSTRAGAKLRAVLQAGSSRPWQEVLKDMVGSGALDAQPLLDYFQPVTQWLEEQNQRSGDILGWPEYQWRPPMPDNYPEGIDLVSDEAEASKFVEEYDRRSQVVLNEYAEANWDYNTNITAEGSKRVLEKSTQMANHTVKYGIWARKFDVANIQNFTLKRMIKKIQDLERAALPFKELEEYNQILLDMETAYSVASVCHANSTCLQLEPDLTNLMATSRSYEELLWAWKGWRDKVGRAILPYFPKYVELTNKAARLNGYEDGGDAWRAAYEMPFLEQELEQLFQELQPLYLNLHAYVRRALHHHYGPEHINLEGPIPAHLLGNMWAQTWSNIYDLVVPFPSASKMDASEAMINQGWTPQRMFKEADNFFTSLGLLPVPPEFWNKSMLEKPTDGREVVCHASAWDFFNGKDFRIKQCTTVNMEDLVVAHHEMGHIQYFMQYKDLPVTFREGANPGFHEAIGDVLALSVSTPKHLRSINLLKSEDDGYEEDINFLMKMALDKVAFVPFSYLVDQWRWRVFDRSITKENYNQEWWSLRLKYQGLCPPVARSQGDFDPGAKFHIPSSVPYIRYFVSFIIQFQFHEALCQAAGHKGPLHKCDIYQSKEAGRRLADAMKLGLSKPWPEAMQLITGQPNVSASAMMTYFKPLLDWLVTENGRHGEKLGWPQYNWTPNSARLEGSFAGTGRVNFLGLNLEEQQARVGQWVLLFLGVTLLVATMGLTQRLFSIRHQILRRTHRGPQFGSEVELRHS
Outline: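 ACE (1 nM final) in 50 mM HEPES, 300 mM NaCl, 0.01% Brij-35, pH 7.5, with compound in 5% DMSO at 12 concentrations, 25 °C. Substrate cleavage run ~30 min, stopped with EDTA; fluorescence read at excitation 320 nm, emission 405 nm.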

Carboxypeptidase A = molecular target: T3, Carboxypeptidase A (Bos taurus, UniProt P00730); test: Carboxypeptidase A activity assay; assay type: biochemical; conditions: Ki class, compounds tested in 5% DMSO
T3 sequence (P00730 111-419): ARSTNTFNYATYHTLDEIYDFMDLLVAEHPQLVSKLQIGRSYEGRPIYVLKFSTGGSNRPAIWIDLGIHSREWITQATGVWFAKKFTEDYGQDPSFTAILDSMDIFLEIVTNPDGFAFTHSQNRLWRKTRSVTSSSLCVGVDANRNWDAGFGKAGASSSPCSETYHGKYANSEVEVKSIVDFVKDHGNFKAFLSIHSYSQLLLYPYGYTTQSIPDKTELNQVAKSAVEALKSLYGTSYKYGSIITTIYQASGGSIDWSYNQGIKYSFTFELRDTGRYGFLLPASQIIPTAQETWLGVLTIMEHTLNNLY
Outline: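 Bovine carboxypeptidase A activity followed at 328 nm in 5% DMSO, reaction stopped with EDTA. Activity measured at 12 compound concentrations. Ki derived from apparent Ki as Ki=Kiapp/(1+[S]/Km).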

[3] = Ki class, compounds tested in 5% DMSO, 12 concentrations, read-out: Human ACE-2 Activity
[4] = Ki class, compounds tested in 5% DMSO, 12 compound concentrations, Ki=Kiapp/(1+[S]/Km), read-out: Human ACE-2 Activity
[5] = Table 3, very good ACE-2 inhibiting compounds, species not given, read-out: ACE-2 Activity, Ki

T1 sequence (Q9BYF1 18-740 limits assumed): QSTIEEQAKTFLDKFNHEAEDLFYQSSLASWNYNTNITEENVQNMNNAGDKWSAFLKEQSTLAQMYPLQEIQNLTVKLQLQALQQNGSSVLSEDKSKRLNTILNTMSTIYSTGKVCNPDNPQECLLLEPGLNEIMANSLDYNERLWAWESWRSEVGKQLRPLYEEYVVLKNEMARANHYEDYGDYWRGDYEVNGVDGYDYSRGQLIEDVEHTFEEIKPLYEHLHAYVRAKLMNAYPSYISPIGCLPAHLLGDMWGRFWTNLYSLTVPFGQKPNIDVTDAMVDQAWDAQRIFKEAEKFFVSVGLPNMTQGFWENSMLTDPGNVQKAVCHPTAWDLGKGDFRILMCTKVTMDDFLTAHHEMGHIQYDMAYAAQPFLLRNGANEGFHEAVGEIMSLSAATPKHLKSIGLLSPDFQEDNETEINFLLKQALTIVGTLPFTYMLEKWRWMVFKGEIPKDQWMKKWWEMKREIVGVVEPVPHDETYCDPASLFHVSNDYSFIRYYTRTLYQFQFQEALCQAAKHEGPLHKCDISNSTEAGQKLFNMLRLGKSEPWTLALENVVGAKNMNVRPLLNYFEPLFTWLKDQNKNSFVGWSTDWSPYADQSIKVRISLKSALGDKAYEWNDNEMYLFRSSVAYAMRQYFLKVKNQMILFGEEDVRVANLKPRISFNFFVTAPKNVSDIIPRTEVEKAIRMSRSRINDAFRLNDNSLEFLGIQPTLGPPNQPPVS
Chain of ACE-2 (Rattus norvegicus, UniProt Q5EGZ1) (Q5EGZ1 18-805): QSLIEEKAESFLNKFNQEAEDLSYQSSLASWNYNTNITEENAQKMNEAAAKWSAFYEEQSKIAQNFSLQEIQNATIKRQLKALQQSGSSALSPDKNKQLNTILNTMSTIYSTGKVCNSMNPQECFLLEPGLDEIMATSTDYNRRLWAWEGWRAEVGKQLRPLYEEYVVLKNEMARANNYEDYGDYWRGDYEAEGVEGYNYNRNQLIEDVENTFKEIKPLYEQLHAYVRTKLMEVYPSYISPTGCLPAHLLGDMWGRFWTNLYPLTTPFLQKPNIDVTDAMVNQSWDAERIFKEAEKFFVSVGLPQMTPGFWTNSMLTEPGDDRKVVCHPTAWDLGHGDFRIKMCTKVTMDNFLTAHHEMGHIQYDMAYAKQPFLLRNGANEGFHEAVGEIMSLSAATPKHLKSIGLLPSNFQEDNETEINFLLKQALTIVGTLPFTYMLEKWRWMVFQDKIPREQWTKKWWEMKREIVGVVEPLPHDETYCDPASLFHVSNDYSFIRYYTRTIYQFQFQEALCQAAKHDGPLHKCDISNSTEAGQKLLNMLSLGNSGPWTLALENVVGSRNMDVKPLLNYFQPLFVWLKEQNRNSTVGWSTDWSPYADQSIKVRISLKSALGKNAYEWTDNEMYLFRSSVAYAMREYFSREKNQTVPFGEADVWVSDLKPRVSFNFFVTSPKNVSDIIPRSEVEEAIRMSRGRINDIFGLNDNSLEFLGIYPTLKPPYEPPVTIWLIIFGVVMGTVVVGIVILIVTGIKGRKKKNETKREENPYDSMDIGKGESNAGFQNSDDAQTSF

pKi (ACE-2 [1]; [3])	pKi (ACE-2 [2]; 12 concentrations)	pKi (ACE (Sigma, A2580); 12 concentrations)	pKi (Carboxypeptidase A; 12 concentrations)	pKi (ACE-2 [1]; [4])	pKi (ACE-2 [1]; [5])	pKi (ACE-2 [2]; 12 compound concentrations)	pKi (ACE (Sigma, A2580); 12 compound concentrations)	pKi (Carboxypeptidase A; 12 compound concentrations)	SMILES
< 6.30	< 6.30	< 4.30	< 4.30	–	–	–	–	–	CC(C)CC(N[C@H](Cc1cscn1)C(=O)O)C(=O)O (some centres unmarked) [CV, 2-(1-Carboxy-2-thiazol-4-yl-ethylamino)-4-methyl-pentanoic acid]
< 6.30	< 6.30	< 4.30	4.30 to 5.00	–	–	–	–	–	CC(C)C[C@@H](C(=O)O)N(C(=O)c1ccccc1)C(CCc1ccccc1)C(=O)O (stereo in doubt) [AV, 2-[Benzoyl-(1-carboxy-3-phenyl-propyl)-amino]-4-methyl-pentanoic acid]
–	–	–	–	> 7.00	> 7.30	> 7.00	4.30 to 5.00	4.30 to 5.00	Cc1cc(C)cc(Cn2cncc2C[C@H](NC(CC(C)C)C(=O)O)C(=O)O)c1 (single isomer, unassigned) [HQ, 2-[1-Carboxy-2-[3-(3,5-dimethyl-benzyl)-3H-imidazol-4-yl]-ethylamino]4-methyl-pantanoic acid]
< 6.30	< 6.30	< 4.30	< 4.30	–	–	–	–	–	COc1ccc(C(N[C@@H](CC(C)C)C(=O)O)C(=O)O)cc1 (some centres unmarked) [BQ, 2-[(Carboxy-(4-methoxy-phenyl)-methyl]-amino]-4-methyl-pentanoic acid]
< 6.30	< 6.30	4.30 to 5.00	< 4.30	–	–	–	–	–	CCC(C)C(N[C@H](Cc1c[nH]cn1)C(=O)O)C(=O)O (stereo in doubt) [BE, 2-[1-Carboxy-2-(1H-imidazol-4-yl)-ethylamino]-3-methyl-pentanoic acid]
< 6.30	< 6.30	< 4.30	< 4.30	–	–	–	–	–	CC(C)(C)C[C@H](N[C@H](CCc1ccccc1)C(=O)O)C(=O)O [DD, 2-(1-Carboxy-3-phenyl-propylamino)-4,4-dimethylpentanoic acid]
< 6.30	< 6.30	< 4.30	< 4.30	–	–	–	–	–	CC(C)CC(N[C@@H](Cc1cncn1COCc1ccccc1)C(=O)O)C(=O)O (single isomer, unassigned) [FH, 2-[2-(3-Benzyloxymethyl-3H-imidazol-4-yl)-1-carboxy-ethylamino]-4-methyl-pentanoic acid]
–	< 6.30	4.30 to 5.00	< 4.30	–	–	–	–	–	CC(C)CC(N[C@@H](Cc1c[nH]cn1)C(=O)O)C(=O)O (single isomer, unassigned) [BL, 2-[1-Carboxy-2-(1H-imidazol-4-yl)-ethylamino]4-methyl-pentanoic acid]
–	6.30 to 7.00	< 4.30	< 4.30	–	–	–	–	–	COC(=O)[C@H](Cc1c[nH]cn1)NC(CC(C)C)C(=O)O (single isomer, unassigned) [CU, 2-[2-(1H-Imidazol-4-yl)-1-methoxycarbonyl-ethylamino]-4-methyl-pentanoic acid]
–	–	–	–	> 7.00	> 7.30	> 7.00	–	–	CC(C)CC(N[C@@H](Cc1cncn1Cc1cccc(F)c1)C(=O)O)C(=O)O (single isomer, unassigned) [JQ, 2-[1-Carboxy-2-[3-(3-fluoro-benzyl)-3H-imidazol-4-yl]-ethylamino]4-methyl-pentanoic acid]
–	–	–	–	> 7.00	> 7.30	> 7.00	–	–	CC(C)CC(N[C@@H](Cc1cncn1CCC1CCCCC1)C(=O)O)C(=O)O (single isomer, unassigned) [JI, 2-[1-Carboxy-2-[3-(2-cyclohexyl-ethyl)-3H-imidazol-4-yl]-ethylamino]4-methyl-pentanoic acid]
–	–	–	–	> 7.00	> 7.30	> 7.00	–	–	CC(C)CC(N[C@@H](Cc1cncn1Cc1ccc2c(c1)OCO2)C(=O)O)C(=O)O (single isomer, unassigned) [JE]
–	–	–	–	> 7.00	7.00 to 7.30	> 7.00	–	–	CC(C)CC(N[C@@H](Cc1cncn1Cc1ccc(F)cc1)C(=O)O)C(=O)O (single isomer, unassigned) [II, 2-[1-Carboxy-2-[3-(4-fluoro-benzyl)-3H-imidazol-4-yl]-ethylamino]4-methyl-pentanoic acid]
–	6.30 to 7.00	4.30 to 5.00	< 4.30	–	–	–	–	–	O=C(O)C(Cc1ccc(O)cc1)N[C@@H](Cc1c[nH]cn1)C(=O)O (single isomer, unassigned) [DO, 2-[1-Carboxy-2-(4-hydroxy-phenyl)-ethylamino]-3-(1H-imidazol-4-yl)-propionicacid]
–	< 6.30	< 4.30	< 4.30	–	–	–	–	–	CC(C)CC(N[C@@H](Cc1cncn1COCc1ccccc1)C(N)=O)C(=O)O (single isomer, unassigned) [FC, 2-[2-(3-Benzyloxymethyl-3H-imidazol-4-yl)-1-carbamoyl-ethylamino]-4-methyl-pentanoic acid]
–	–	–	–	< 6.30	> 7.30	> 7.00	–	–	CC(C)CC(N[C@@H](Cc1cncn1Cc1cccc(Cl)c1Cl)C(=O)O)C(=O)O (single isomer, unassigned) [IX, 2-[1-Carboxy-2-[3-(2,3-dichloro-benzyl)-3H-imidazol-4-yl]-ethylamino]4-methyl-pentanoic acid]
–	–	–	–	> 7.00	> 7.30	> 7.00	–	–	CC(C)CC(N[C@@H](Cc1cncn1Cc1cc(Cl)ccc1Cl)C(=O)O)C(=O)O (single isomer, unassigned) [JB, 2-[1-Carboxy-2-[3-(2,5-dichloro-benzyl)-3H-imidazol-4-yl]-ethylamino]4-methyl-pentanoic acid]
–	< 6.30	< 4.30	< 4.30	–	–	–	–	–	CCC(C)C(NC(Cc1cncn1Cc1ccccc1)C(=O)O)C(=O)O (single isomer, unassigned) [GD, 2-[2-(3-Benzyl-3H-imidazol-4-yl)-1-carboxy-ethylamino]-3-methyl-pentanoic acid]
–	–	–	–	6.30 to 7.00	7.00 to 7.30	> 7.00	–	–	CC(C)CC(N[C@@H](Cc1csc(-c2ccccc2)n1)C(=O)O)C(=O)O (some centres unmarked) [IL, 2-[1-Carboxy-2-(2-phenyl-thiazol-4-yl)-ethylamino]-4-methyl-pentanoic acid]
–	< 6.30	4.30 to 5.00	< 4.30	–	–	–	–	–	CCCCC(N[C@@H](Cc1c[nH]cn1)C(=O)O)C(=O)O (single isomer, unassigned) [EF, 2-[1-Carboxy-2-(1H-imidazol-4-yl)-ethylamino]hexanoic acid]
–	< 6.30	< 4.30	< 4.30	–	–	–	–	–	CCCCC(N[C@@H](Cc1cncn1Cc1ccccc1)C(=O)O)C(=O)O (single isomer, unassigned) [FZ, 2-[2-(3-Benzyl-3H-imidazol-4-yl)-1-carboxy-ethylamino]-hexanoicacid]
–	6.30 to 7.00	< 4.30	4.30 to 5.00	–	–	–	–	–	O=C(O)C(Cc1ccccc1)N[C@@H](Cc1cnc[nH]1)C(=O)O (some centres unmarked) [EQ, 2-(1-Carboxy-2-phenyl-ethylamino)-3-(1H-imidazol-4-yl)-propionicacid]

From US7045532B2 (Millennium Pharmaceuticals, Inc., priority 1999, dated 2006)
